# Test results reported in DBAASP.
# Tests used:
# Experiment in all cases: ≥ marks a high value that may be exact or a test limit, other limits are often not marked, values filed in µg/mL are converted to µM
# [1] = system: Escherichia coli ATCC 25922
# [2] = system: Pseudomonas aeruginosa ATCC 27853
# [3] = system: Staphylococcus aureus ATCC 25923
# Escherichia coli = system: Escherichia coli
# Staphylococcus aureus = system: Staphylococcus aureus
SMILES,MIC [1] [µM],MIC [2] [µM],MIC [3] [µM],MIC (Escherichia coli) [µM],MIC (Staphylococcus aureus) [µM]
CC(C)[C@H](NC(=O)[C@H](CC(=O)O)NC(=O)[C@H](CO)NC(=O)[C@H](CCCCN)NC(=O)CNC(=O)[C@H](CO)NC(=O)[C@H](CO)NC(=O)[C@H](Cc1cnc[nH]1)NC(=O)[C@H](CCC(N)=O)NC(=O)[C@@H](N)CCC(=O)O)C(N)=O [EQHSSGKSDV],> 100,> 100,> 100,–,–
CC[C@H](C)[C@H](NC(=O)[C@H](CCSC)NC(=O)[C@H](CCCN=C(N)N)NC(=O)CNC(=O)[C@H](C)NC(=O)[C@H](Cc1cnc[nH]1)NC(=O)[C@H](Cc1ccccc1)NC(=O)[C@H](CC(C)C)NC(=O)CNC(=O)[C@H](CCCCN)NC(=O)[C@@H](NC(=O)[C@@H](NC(=O)[C@H](Cc1cnc[nH]1)NC(=O)[C@H](Cc1ccccc1)NC(=O)[C@H](Cc1ccccc1)NC(=O)[C@@H](N)Cc1ccccc1)[C@@H](C)CC)[C@@H](C)CC)C(=O)N[C@@H](Cc1cnc[nH]1)C(=O)NCC(=O)N[C@@H](CC(C)C)C(=O)N[C@H](C(=O)O)C(C)C [FFFHIIKGLFHAGRMIHGLV],–,32,–,–,–
CC[C@H](C)[C@H](NC(=O)[C@H](CCCCN)NC(=O)[C@@H]1CCCN1C(=O)[C@H](CC(C)C)NC(=O)[C@H](Cc1ccccc1)NC(=O)[C@H](CC(N)=O)NC(=O)[C@H](C)NC(=O)[C@H](C)NC(=O)[C@@H]1CSSC[C@H](NC(=O)[C@H](CC(C)C)NC(=O)CNC(=O)[C@H](C)NC(=O)[C@H](CC(C)C)NC(=O)[C@H](CC(C)C)NC(=O)[C@@H]2CCCN2C(=O)[C@H](CC(C)C)NC(=O)[C@@H](N)Cc2ccccc2)C(=O)N[C@@H](CCCCN)C(=O)N[C@@H]([C@@H](C)CC)C(=O)N[C@@H]([C@@H](C)O)C(=O)N[C@@H](CCCN=C(N)N)C(=O)N[C@@H](CCCCN)C(=O)N1)C(=O)N[C@@H](Cc1ccccc1)C(=O)O [FLPLLAGLCKITRKCAANFLPKIF],–,–,–,7,1.5
CC[C@H](C)[C@H](NC(=O)[C@H](CC(C)C)NC(=O)[C@H](C)NC(=O)[C@H](Cc1ccccc1)NC(=O)[C@H](Cc1ccccc1)NC(=O)CN)C(=O)N[C@@H](C)C(=O)N[C@@H](CCCCN)C(=O)N[C@H](C(=O)N[C@H](C(=O)N[C@@H](CO)C(=O)N[C@@H](CO)C(=O)N1CCC[C@H]1C(=O)N[C@@H](CC(C)C)C(=O)N[C@@H](Cc1ccccc1)C(=O)N[C@@H](CCCCN)C(=O)N[C@H](C(=O)N[C@@H](CC(C)C)C(N)=O)[C@@H](C)O)[C@@H](C)CC)[C@@H](C)CC [GFFALIAKIISSPLFKTL],–,–,–,20.3,–
CC[C@H](C)[C@H](NC(=O)[C@H](CO)NC(=O)[C@H](C)NC(=O)[C@H](CC(C)C)NC(=O)CNC(=O)[C@H](C)NC(=O)[C@H](CCCCN)NC(=O)[C@H](C)NC(=O)[C@H](Cc1ccccc1)NC(=O)[C@H](CCCCN)NC(=O)[C@H](CCCCN)NC(=O)[C@H](CC(C)C)NC(=O)CNC(=O)[C@H](CCC(=O)O)NC(=O)[C@H](C)NC(=O)[C@H](C)NC(=O)[C@@H](NC(=O)[C@@H](NC(=O)[C@H](Cc1c[nH]c2ccccc12)NC(=O)[C@H](Cc1ccccc1)NC(=O)CN)[C@@H](C)O)[C@@H](C)O)C(=O)N[C@@H](CC(C)C)C(=O)N[C@@H](CC(N)=O)C(=O)N1CCC[C@H]1C(=O)N[C@@H](CCCCN)C(=O)O [GFWTTAAEGLKKFAKAGLASILNPK],–,–,–,80,> 80
CC[C@H](C)[C@H](NC(=O)CN)C(=O)N[C@@H](CC(C)C)C(=O)N[C@@H](CO)C(=O)N[C@@H](CC(N)=O)C(=O)N[C@H](C(=O)N[C@@H](CC(C)C)C(=O)NCC(=O)N[C@@H](CCSC)C(=O)NCC(=O)N[C@@H](CCCCN)C(=O)N[C@@H](CCCCN)C(=O)N[C@H](C(=O)N[C@H](C(=O)N[C@H]1CSSC[C@@H](C(=O)O)NC(=O)[C@H](CC(C)C)NC(=O)CNC(=O)[C@H](CO)NC(=O)[C@H](CC(C)C)NC(=O)CNC1=O)C(C)C)[C@@H](C)CC)C(C)C [GILSNVLGMGKKIVCGLSGLC],–,–,–,70,> 100
CC[C@H](C)[C@H](NC(=O)CN)C(=O)N[C@@H](CCCN=C(N)N)C(=O)N[C@@H](CC(=O)O)C(=O)N[C@H](C(=O)N[C@@H](CC(C)C)C(=O)N[C@@H](CCCCN)C(=O)NCC(=O)N[C@@H](C)C(=O)N[C@@H](C)C(=O)N[C@@H](CCCCN)C(=O)N[C@@H](C)C(=O)N[C@@H](Cc1ccccc1)C(=O)N[C@H](C(=O)N[C@@H](CCCCN)C(=O)N[C@H](C(=O)N[C@H](C(=O)N[C@@H](C)C(=O)NCC(=O)N[C@@H](Cc1cnc[nH]1)C(=O)N[C@H](C(=O)N[C@@H](C)C(=O)N[C@@H](CC(N)=O)C(N)=O)[C@@H](C)CC)C(C)C)[C@@H](C)O)C(C)C)C(C)C [GIRDVLKGAAKAFVKTVAGHIAN],4,–,–,–,–
CC[C@H](C)[C@H](NC(=O)[C@H](CCCCN)NC(=O)[C@H](CCCCN)NC(=O)[C@@H](NC(=O)[C@@H](NC(=O)[C@H](CC(=O)O)NC(=O)[C@H](Cc1ccccc1)NC(=O)[C@H](CC(C)C)NC(=O)CN)[C@@H](C)CC)[C@@H](C)CC)C(=O)N[C@@H](Cc1c[nH]c2ccccc12)C(=O)N[C@@H](CCC(=O)O)C(=O)N[C@@H](CO)C(=O)N[C@@H](Cc1ccccc1)C(N)=O [GLFDIIKKIWESF],> 125,> 125,–,–,–
CC(C)C[C@H](NC(=O)[C@H](CC(C)C)NC(=O)[C@@H](NC(=O)[C@H](CCCCN)NC(=O)[C@H](C)NC(=O)[C@H](CCCN=C(N)N)NC(=O)[C@H](CCCCN)NC(=O)[C@H](CC(C)C)NC(=O)[C@H](CC(C)C)NC(=O)CN)[C@@H](C)O)C(N)=O [GLLKRAKTLL],> 36.9,–,> 36.9,–,–
